# pIC50: −log10 of the molar value.
# Target: T1, Recombinant human cathepsin A (Homo sapiens, UniProt P10619)
# T1 construct: Recombinant human cathepsin A (residues 29-480, with a C-terminal 10-His tag); 10-His (C); purchased R&D Systems 1049-SE
# T1 sequence (P10619 29-326 limits assumed): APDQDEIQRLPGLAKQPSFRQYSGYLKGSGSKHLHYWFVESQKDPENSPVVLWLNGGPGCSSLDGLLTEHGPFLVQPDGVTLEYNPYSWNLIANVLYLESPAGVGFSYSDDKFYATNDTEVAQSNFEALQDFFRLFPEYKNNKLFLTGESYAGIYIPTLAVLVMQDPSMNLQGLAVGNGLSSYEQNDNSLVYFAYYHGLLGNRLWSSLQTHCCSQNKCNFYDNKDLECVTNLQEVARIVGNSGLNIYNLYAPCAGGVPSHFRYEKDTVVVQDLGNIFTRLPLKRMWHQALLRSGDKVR
# T1 sequence (P10619 327-480 limits assumed): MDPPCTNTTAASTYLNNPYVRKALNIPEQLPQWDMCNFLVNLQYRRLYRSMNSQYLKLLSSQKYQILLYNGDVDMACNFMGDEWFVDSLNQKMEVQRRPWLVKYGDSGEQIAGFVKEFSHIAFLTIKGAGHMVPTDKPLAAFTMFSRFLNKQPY
# Test: Cathepsin A inhibitory activity
# Assay type: biochemical
# Conditions: activated recombinant human cathepsin A 833 ng/ml, Bodipy FL-labeled bradykinin substrate 2 μM, pH 5.5, room temperature
# Experimental: a) Cathepsin A Inhibitory Activity
# Recombinant human cathepsin A (residues 29-480, with a C-terminal 10-His tag; R&D Systems, #1049-SE) was proteolytically activated with recombinant human cathepsin L (R&D Systems, #952-CY). Briefly, cathepsin A was incubated at 10 μg/ml with cathepsin L at 1 μg/ml in activation buffer (25 mM 2-(morpholin-4-yl)-ethanesulfonic acid (MES), pH 6.0, containing 5 mM dithiothreitol (DTT)) for 15 min at 37° C. Cathepsin L activity was then stopped by the addition of the cysteine protease inhibitor E-64 (N-(trans-epoxysuccinyl)-L-leucine-4-guanidinobutylamide; Sigma-Aldrich, # E3132; dissolved in activation buffer/DMSO) to a final concentration of 10 μM.
# The activated cathepsin A was diluted in assay buffer (25 mM MES, pH 5.5, containing 5 mM DTT) and mixed with the test compound (dissolved in assay buffer containing (v/v) 3% DMSO) or, in the control experiments, with the vehicle in a multiple assay plate. After incubation for 15 min at room temperature, as substrate then bradykinin carrying an N-terminal ®Bodipy FL (4,4-difluoro-5,7-dimethyl-4-bora-3a,4a-diaza-s-indacene-3-propionyl) label (JPT Peptide Technologies GmbH; dissolved in assay buffer) was added to the mixture. The final concentration of cathepsin A was 833 ng/ml and the final concentration of labeled bradykinin 2 μM. After incubation for 15 min at room temperature the reaction was stopped by the addition of stop buffer (130 mM 2-(4-(2-hydroxy-ethyl)-piperazin-1-yl)-ethanesulfonic acid, pH 7.4, containing (v/v) 0.013% ®Triton X-100, 0.13% Coating Reagent 3 (Caliper Life Sciences), 6.5% DMSO and 20 μM ebelactone B (Sigma, # E0886)).
# Uncleaved substrate and product were then separated by a microfluidic capillary electrophoresis on a LabChip® 3000 Drug Discovery System (12-Sipper-Chip; Caliper Life Sciences) and quantified by determination of the respective peak areas. Substrate turnover was calculated by dividing product peak area by the sum of substrate and product peak areas, and the enzyme activity and the inhibitory effect of the test compound thus quantified. From the percentage of inhibition of cathepsin A activity observed with the test compound at several concentrations, the inhibitory concentration IC50, i.e. the concentration which effects 50% inhibition of enzyme activity was, calculated.
row,pIC50,Compound
1,6.34,"O=C(O)CC(NC(=O)c1nc(-c2ccccc2)cs1)c1ccccc1Cl (stereo not shown) [Example 68, 3-(2-Chloro-phenyl)-3-[(4-phenyl-thiazole-2-carbonyl)-amino]-propionic acid]"
2,6.17,"Cc1ccccc1-c1nc(C(=O)N[C@@H](CC(=O)O)c2ccccc2C(F)(F)F)cs1 [Example 61, (S)-3-[(2-o-Tolyl-thiazole-4-carbonyl)-amino]-3-(2-trifluoromethyl-phenyl)-propionic acid]"
3,6.81,"COc1cccc([C@H](CC(=O)O)NC(=O)c2csc(-c3cccc(Cl)c3Cl)n2)c1OC [Example 64, (S)-3-{[2-(2,3-Dichloro-phenyl)-thiazole-4-carbonyl]-amino}-3-(2,3-dimethoxy-phenyl)-propionic acid]"
4,5.88,"O=C(O)C[C@H](NC(=O)c1csc(-c2cccc(Cl)c2)n1)c1ccccc1F [Example 92, (S)-3-{[2-(3-Chloro-phenyl)-thiazole-4-carbonyl]-amino}-3-(2-fluoro-phenyl)-propionic acid]"
5,5.45,"O=C(O)C[C@H](NC(=O)c1csc(-c2ccc(Cl)cc2)n1)c1cccc(Cl)c1 [Example 45, (S)-3-(3-Chloro-phenyl)-3-{[2-(4-chloro-phenyl)-thiazole-4-carbonyl]-amino}-propionic acid]"
6,6.50,"Cc1ccccc1-c1nc(C(=O)N[C@@H](CC(=O)O)c2ccccc2F)cs1 [Example 34, (S)-3-(2-Fluoro-phenyl)-3-[(2-o-tolyl-thiazole-4-carbonyl)-amino]-propionic acid]"
7,6.39,"O=C(O)C[C@H](NC(=O)c1nc(-c2ccccc2)cs1)c1ccc(C(F)(F)F)cc1 [Example 97, (S)-3-[(4-Phenyl-thiazole-2-carbonyl)-amino]-3-(4-trifluoromethyl-phenyl)-propionic acid]"
8,6.80,"O=C(O)C[C@H](NC(=O)c1csc(-c2cccc(Cl)c2Cl)n1)c1cccc(Cl)c1Cl [Example 14, (S)-3-(2,3-Dichloro-phenyl)-3-{[2-(2,3-dichloro-phenyl)-thiazole-4-carbonyl]-amino}-propionic acid]"
9,6.60,"O=C(O)C[C@H](NC(=O)c1csc(-c2cccc(Cl)c2Cl)n1)c1cccc(F)c1 [Example 67, (S)-3-{[2-(2,3-Dichloro-phenyl)-thiazole-4-carbonyl]-amino}-3-(3-fluoro-phenyl)-propionic acid]"
10,4.95,"O=C(O)CC(NC(=O)c1csc(-c2ccc(C(F)(F)F)cc2)n1)C1CCCCC1 (stereo not shown) [Example 132, 3-Cyclohexyl-3-{[2-(4-trifluoromethyl-phenyl)-thiazole-4-carbonyl]-amino}-propionic acid]"
11,4.83,"COc1ccc([C@H](CC(=O)O)NC(=O)c2csc(-c3ccc(C(F)(F)F)cc3)n2)cc1 [Example 60, (S)-3-(4-Methoxy-phenyl)-3-{[2-(4-trifluoromethyl-phenyl)-thiazole-4-carbonyl]-amino}-propionic acid]"
12,5.47,"O=C(O)CC(NC(=O)c1csc(-c2cccc(Cl)c2)n1)C1CCCCC1 (stereo not shown) [Example 124, 3-{[2-(3-Chloro-phenyl)-thiazole-4-carbonyl]-amino}-3-cyclohexyl-propionic acid]"
13,6.95,"COc1cccc([C@H](CC(=O)O)NC(=O)c2csc(-c3ccccc3Cl)n2)c1OC [Example 74, (S)-3-{[2-(2-Chloro-phenyl)-thiazole-4-carbonyl]-amino}-3-(2,3-dimethoxy-phenyl)-propionic acid]"
14,6.50,"Cc1cccc([C@H](CC(=O)O)NC(=O)c2nc(-c3ccccc3)cs2)c1 [Example 3, (S)-3-[(4-Phenyl-thiazole-2-carbonyl)-amino]-3-m-tolyl-propionic acid]"
15,4.66,"O=C(N[C@@H](Cc1ccc(Cl)cc1)C(=O)O)c1csc(-c2ccccc2)n1 [Example 58, (S)-3-(4-Chloro-phenyl)-2-[(2-phenyl-thiazole-4-carbonyl)-amino]-propionic acid]"
16,7.00,"O=C(O)C[C@H](NC(=O)c1csc(-c2ccccc2Cl)n1)c1ccccc1Cl [Example 29, (S)-3-(2-Chloro-phenyl)-3-{[2-(2-chloro-phenyl)-thiazole-4-carbonyl]-amino}-propionic acid]"
17,4.90,"O=C(NCC(C(=O)O)c1ccccc1)c1csc(-c2ccccc2F)n1 (stereo not shown) [Example 121, 3-{[2-(2-Fluoro-phenyl)-thiazole-4-carbonyl]-amino}-2-phenyl-propionic acid]"
18,6.54,"O=C(O)C[C@H](NC(=O)c1csc(-c2ccccc2Cl)n1)c1ccc(Cl)cc1Cl [Example 75, (S)-3-{[2-(2-Chloro-phenyl)-thiazole-4-carbonyl]-amino}-3-(2,4-dichloro-phenyl)-propionic acid]"
19,4.76,"COc1cccc([C@H](CC(=O)O)NC(=O)c2csc(-c3ccc(Cl)cc3)n2)c1 [Example 106, (S)-3-{[2-(4-Chloro-phenyl)-thiazole-4-carbonyl]-amino}-3-(3-methoxy-phenyl)-propionic acid]"
20,5.86,"COc1cccc([C@H](CC(=O)O)NC(=O)c2csc(-c3cccc(Cl)c3)n2)c1OC [Example 90, (S)-3-{[2-(3-Chloro-phenyl)-thiazole-4-carbonyl]-amino}-3-(2,3-dimethoxy-phenyl)-propionic acid]"
21,6.18,"O=C(O)C[C@H](NC(=O)c1csc(-c2ccccc2F)n1)c1ccccc1F [Example 36, (S)-3-(2-Fluoro-phenyl)-3-{[2-(2-fluoro-phenyl)-thiazole-4-carbonyl]-amino}-propionic acid]"
22,5.85,"O=C(O)C[C@H](NC(=O)c1csc(-c2ccc(Cl)cc2)n1)c1ccccc1Cl [Example 32, (S)-3-(2-Chloro-phenyl)-3-{[2-(4-chloro-phenyl)-thiazole-4-carbonyl]-amino}-propionic acid]"
23,5.20,"COc1cccc([C@H](CC(=O)O)NC(=O)c2csc(-c3ccc(C(F)(F)F)cc3)n2)c1OC [Example 20, (S)-3-(2,3-Dimethoxy-phenyl)-3-{[2-(4-trifluoromethyl-phenyl)-thiazole-4-carbonyl]-amino}-propionic acid]"
24,6.26,"O=C(O)C[C@H](NC(=O)c1csc(-c2ccccc2)n1)c1ccc(Cl)cc1Cl [Example 22, (S)-3-(2,4-Dichloro-phenyl)-3-[(2-phenyl-thiazole-4-carbonyl)-amino]-propionic acid]"
25,5.88,"Cc1ccccc1[C@H](CC(=O)O)NC(=O)c1csc(-c2ccc(C(F)(F)F)cc2)n1 [Example 112, (S)-3-o-Tolyl-3-{[2-(4-trifluoromethyl-phenyl)-thiazole-4-carbonyl]-amino}-propionic acid]"
26,5.99,"O=C(O)C[C@H](NC(=O)c1csc(-c2cccc(Cl)c2)n1)c1cccc(Cl)c1Cl [Example 89, (S)-3-{[2-(3-Chloro-phenyl)-thiazole-4-carbonyl]-amino}-3-(2,3-dichloro-phenyl)-propionic acid]"
27,5.15,"Cc1ccccc1-c1nc(C(=O)NCC(C(=O)O)c2ccccc2)cs1 (stereo not shown) [Example 114, 2-Phenyl-3-[(2-o-tolyl-thiazole-4-carbonyl)-amino]-propionic acid]"
28,6.49,"Cc1ccccc1-c1nc(C(=O)N[C@@H](CC(=O)O)c2ccccc2)cs1 [Example 113, (S)-3-Phenyl-3-[(2-o-tolyl-thiazole-4-carbonyl)-amino]-propionic acid]"
